This passage reports IC50, EC50 and CC50 results from patent US9416154B2, “5′-substituted nucleoside derivatives and methods of use thereof for the treatment of viral diseases” (priority 2011, dated 2016).

Where two headings read alike, the source gives them in different places. Some results are limits rather than exact numbers.

The target in data set [1] is HCV NS5B RNA-dependent RNA polymerase (1b-BKΔ55) (Hepatitis C virus genotype 1b (isolate BK) (HCV), UniProt P26663). Description: HCV NS5B polymerase inhibition assay (radiolabeled nucleotide incorporation). The format is biochemical. The note with it: 5 nM NS5B (1b-BKΔ55), [33P]-CTP incorporation, room temperature 1 hour. Here is the method: The ability of the nucleoside triphosphate derivatives to inhibit the enzymatic activity of the HCV NS5B RNA-dependent RNA polymerase was measured in a radiolabeled nucleotide incorporation assay modified from the method described in International Publication No. WO2002/057287. Briefly, 50 μL reactions containing 20 mM HEPES (pH 7.3), 7.5 mM DTT, 20 units/mL RNasIN, 1 μM each of ATP, GTP, UTP and CTP, 20 μCi/mL [^33P]-CTP, 10 mM MgCl2, 60 mM NaCl, 100 μg/ml BSA, 0.021 μM DCoH heteropolymer RNA template and 5 nM NS5B (1b-BKΔ55) enzyme were incubated at room temperature for 1 hour. Assay was terminated by the addition of 500 mM EDTA (50 μL). The reaction mixture was transferred to a Millipore DE81 filter plate and the incorporation of labeled CTP was determined using Packard TopCount. Compound IC50 values were calculated from experiments with 10 serial 3-fold dilutions of the inhibitor in duplicate.
Chain of HCV NS5B RNA-dependent RNA polymerase (1b-BKΔ55) (P26663 2420-2955): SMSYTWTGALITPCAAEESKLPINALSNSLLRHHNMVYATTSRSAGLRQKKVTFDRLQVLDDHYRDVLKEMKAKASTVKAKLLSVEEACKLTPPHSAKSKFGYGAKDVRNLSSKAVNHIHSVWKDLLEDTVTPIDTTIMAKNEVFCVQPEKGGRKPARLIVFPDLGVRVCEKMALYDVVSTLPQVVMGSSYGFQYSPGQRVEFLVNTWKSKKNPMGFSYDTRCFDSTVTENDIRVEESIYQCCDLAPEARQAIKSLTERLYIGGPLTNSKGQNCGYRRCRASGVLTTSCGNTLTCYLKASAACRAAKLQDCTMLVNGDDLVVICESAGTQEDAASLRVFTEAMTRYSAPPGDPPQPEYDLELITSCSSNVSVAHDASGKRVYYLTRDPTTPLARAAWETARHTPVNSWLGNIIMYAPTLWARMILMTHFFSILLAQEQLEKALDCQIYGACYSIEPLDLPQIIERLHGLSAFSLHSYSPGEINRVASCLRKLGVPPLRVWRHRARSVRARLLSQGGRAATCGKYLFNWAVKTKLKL

Data set [2] relates to HCV replicon (1b). Put plainly: Cell-based HCV replicon assay. Conditions: replicon cells, 3-day incubation, replicon RNA by real time PCR (Taqman); read-out: 1b EC50. As for the experimental part:
To measure cell-based anti-HCV activity of selected compounds of the present invention, replicon cells were seeded at 5000 cells/well in 96-well collagen I-coated Nunc plates in the presence of the test compound. Various concentrations of test compound, typically in 10 serial 2-fold dilutions, were added to the assay mixture, with the starting concentration ranging from 250 μM to 1 μM. The final concentration of dimethylsulfoxide was 0.5%, fetal bovine serum was 5%, in the assay media. Cells were harvested on day 3 by the addition of 1× cell lysis buffer (Ambion cat #8721). The replicon RNA level was measured using real time PCR (Taqman assay). The amplicon was located in 5B. The PCR primers were: 5B.2F, ATGGACAGGCGCCCTGA (SEQ ID. NO. 1); 5B.2R, […] (SEQ ID. NO. 2); the probe sequence was FAM-labeled CACGCCATGCGCTGCGG (SEQ ID. NO. 3). GAPDH RNA was used as endogenous control and was amplified in the same reaction as NS5B (multiplex PCR) using primers and VIC-labeled probe recommended by the manufacturer (PE Applied Biosystem). The real-time RT-PCR reactions were run on ABI PRISM 7900HT Sequence Detection System using the following program: 48° C. for 30 minutes, 95° C. for 10 minutes, 40 cycles of 95° C. for 15 sec, 60° C. for 1 minute. The ΔCT values (CT5B-CTGAPDH) were plotted against the concentration of test compound and fitted to the sigmoid dose-response model using XLfit4 (MDL). EC50 was defined as the concentration of inhibitor necessary to achieve ΔCT=1 over the projected baseline; EC90 the concentration necessary to achieve ΔCT=3.2 over the baseline. Alternatively, to quantitate the absolute amount of replicon RNA, a standard curve was established by including serially diluted T7 transcripts of replicon RNA in the Taqman assay. All Taqman reagents were from PE Applied Biosystems. Such an assay procedure was described in detail in e.g. Malcolm et al., Antimicrobial Agents and Chemotherapy 50: 1013-1020 (2006).
For orientation: In antiviral work, replicon cells carry a viral genome segment that copies itself.

Data set [3] concerns Huh 7 hepatoma cells containing the subgenomic HCV replicon. Description: Cytotoxicity (MTS assay or GAPDH RNA readout). The class given is cell-based. Here is the method: The effect of the nucleoside derivatives on the proliferation and metabolism of Huh 7 hepatoma cells containing the subgenomic HCV replicon was measured using the MTS assay. Briefly, cells were seeded and dosed with compounds exactly as described in Example 13 above, for replicon EC50 determination. After a 3-day compound incubation period, the MTS assay was performed in accordance with the manufacturer's protocol for the CellTiter 96 Aqueous One Solution Cell Proliferation Assay (Promega, Catalog #G358). Alternatively, after a 3-day compound incubation, the amount of glyceraldehyde-3-phosphate dehydrogenase (GAPDH) RNA in replicon-containing Huh 7 cells was determined using qRT-PCR. CC50 values were derived from 10 serial 2-fold dilutions of the inhibitor in duplicate that yielded 50% inhibition of the MTS or GAPDH RNA readout by comparison with cells treated with vehicle control.
For orientation: Tetrazolium assays rely on reduction of a dye to a coloured formazan, in cell work by metabolically active cells.

For orientation: IC50 means the concentration that inhibits the measured activity by half. A higher IC50 goes with a need for much substance. The molecule `CC(OP(=O)(O)OP(=O)(O)OP(=O)(O)O)[C@H]1O[C@@H](n2ccc3c(N)ncnc32)[C@](C)(F)[C@@H]1O` (some centres unmarked) [Compound 15] had an IC50 in data set [1] of more than 20 µM.
`C[C@H](OP(=O)(O)OP(=O)(O)OP(=O)(O)O)[C@H]1O[C@@H](n2ccc3c(N)ncnc32)[C@](C)(O)[C@@H]1O` [Compound 37] gave an IC50 in data set [1] of 40 µM.
`C[C@@H](OP(=O)(O)OP(=O)(O)OP(=O)(O)O)[C@H]1O[C@@H](n2ccc3c(N)ncnc32)[C@](C)(O)[C@@H]1O` [Compound 36] yielded an IC50 in data set [1] of 65 µM.
The term EC50 denotes the midpoint of the concentration-response curve. What is called CC50 is the concentration that lowers cell viability or growth by half. Consider `CC(C)(O)[C@H]1O[C@@H](n2ccc3c(N)ncnc32)[C@](C)(O)[C@@H]1O` [Compound 31], for which the EC50 in data set [2] is more than 100 µM. Moreover, the CC50 in data set [3] is more than 100 µM.
For `C[C@@H](O)[C@H]1O[C@@H](n2ccc3c(N)ncnc32)[C@](C)(O)[C@@H]1O` [Compound 1], the EC50 in data set [2] was found to be 61 µM. The molecule further returned a CC50 in data set [3] of 78 µM.
Taken in the same sequence, the figures for `CCOC(=O)[C@H](C)NP(=O)(Oc1ccccc1)OC(C)[C@H]1O[C@@H](n2ccc3c(N)ncnc32)[C@](C)(F)[C@@H]1O` (some centres unmarked) [Compound 16] were more than 100 µM and more than 100 µM.
In the case of `C[C@H](O)[C@H]1O[C@@H](n2cc(F)c3c(N)ncnc32)[C@](C)(O)[C@@H]1O` [Compound 9], the EC50 in data set [2] is more than 100 µM. The CC50 in data set [3] is more than 100 µM.
With `CC(O)C1O[C@@H](n2cc(F)c3c(N)ncnc32)[C@](C)(F)[C@@H]1O` (some centres unmarked) [Compound 24], the EC50 in data set [2] is more than 100 µM. Also, in data set [3] (replicon-containing Huh 7 cells, 3-day incubation, MTS or GAPDH RNA readout, read-out: 1b CC50), the CC50 was more than 100 µM.
For `C[C@H](O)C1O[C@@H](n2ccc3c(N)ncnc32)[C@](C)(O)[C@@H]1O` (some centres unmarked) [Compound 28], the EC50 in data set [2] is more than 100 µM. The molecule further yielded a CC50 in data set [3] of more than 100 µM.
For the molecule `CC(O)[C@H]1O[C@@H](n2cc(I)c3c(N)ncnc32)[C@](C)(F)[C@@H]1O` (some centres unmarked) [Compound 13], in data set [2], the EC50 turned out to be 58 µM. The molecule also displayed a CC50 in data set [3] of 30 µM.
